The target in test [1] is T1, melatonin ML1A receptor (Homo sapiens, UniProt P48039).
T1 construct: expressed in transfected cells; membrane homogenates
In words: Melatonergic receptor binding activity (2-[125I]-iodomelatonin, membrane homogenates of NIH-3T3 cells expressing the ML1A receptor). To be noted: 37° C., 1 hour, class symbols, read-out: Melatonin Binding Affinity (IC50 Range). The method, then: Melatonergic Receptor Binding Activity
(a) TME=50 mM Tris buffer containing 12.5 mM MgCl2, and 2 mM EDTA, pH 7.4 at 37° C. with concentrated HCl.
(b) Wash buffer: 20 mM Tris base containing 2 mM MgCl2. pH 7.4 at room temperature.
(c) 10^-4 M melatonin (10^-5 M final concentration).
(d) 2-[^125 I]-iodomelatonin, […] final concentration
2. Membrane Homogenates. The melatonin ML1A receptor cDNA was subcloned into pcDNA3 and introduced into NIH-3T3 cells using Lipofectamine. Transformed NIH-3T3 cells resistant to geneticin (G-418) were isolated, and single colonies expressing high levels of 2[^125 Iiodomelatonin binding were isolated. Cells are maintained in DMEM supplemented with 10% calf serum and G-418 (0.5 g/liter). Cells are grown to confluency in T-175 flasks, scraped using Hank's balanced salt solution, and frozen at -80° C. For preparing membrane homogenates,pellets are thawed on ice, and resuspended in TME buffer in the presence of 10 μg/ml aprotinin and leupeptin, and 100 μM phenylmethylsulfonylfluoride. The cells were then homogenized using a dounce homogenizer, and centrifuged. The resulting pellet was resuspended with dounce homogenizer in TME (supplemented with the above protease inhibitors) and frozen. On the day of assay, the small aliquot was thawed on ice and resuspended in ice cold TME (1:50-1:100 v/v) and held on ice until assayed.
3. Incubation: 37° C. for 1 hour. Reaction is terminated by filtration. Filters are washed 3 times.
4. References: Reppert, S. M., and Ebisawa, R. (1994). Neuron, 13, 1177-1185.

Test [2] deals with circadian rhythms in rats. To be noted: exogenous administration, Cassone, et al., 1986; cited from earlier work.

Usually IC50 stands for the concentration that gives 50% inhibition.

T1 sequence (P48039 whole entry): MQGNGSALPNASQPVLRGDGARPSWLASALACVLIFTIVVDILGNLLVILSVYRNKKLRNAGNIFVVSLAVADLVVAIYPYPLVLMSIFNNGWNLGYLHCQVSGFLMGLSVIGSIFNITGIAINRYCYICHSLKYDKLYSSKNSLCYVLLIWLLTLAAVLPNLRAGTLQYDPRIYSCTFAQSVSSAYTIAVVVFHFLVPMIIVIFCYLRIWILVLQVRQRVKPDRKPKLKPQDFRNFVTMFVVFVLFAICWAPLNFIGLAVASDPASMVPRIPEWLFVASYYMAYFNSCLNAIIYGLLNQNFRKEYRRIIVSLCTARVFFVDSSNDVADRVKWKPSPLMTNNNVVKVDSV

On to `COc1ccc2c(c1)C1(CC1CNC(=O)C1CC1)c1cc(OC)ccc1-2` (centres unmarked) [Example 8, N-[(2',7'-Dimethoxyspiro[cyclopropane-1,9'-[9H]fluoren]-2-yl)methyl]cyclopropane carboxamide], for which the IC50 in test [1] is below 10 nM. The same measure, in the same setting: the figure for `COc1ccc2c(c1)C1(CC1CNC(=O)C1CCC1)c1cc(OC)ccc1-2` (centres unmarked) [Example 9, N-[(2',7'-Dimethoxyspiro[cyclopropane-1,9'-[9H]fluoren]-2-yl)methyl]-cyclobutane carboxamide] is 10 to 100 nM. On the same count and under the same terms, the figure for `CCC(=O)NCC1CC12c1cc(F)ccc1-c1ccc(OC)cc12` (stereo not drawn) [Example 12, cis-N-[(2'-Fluoro-7'-methoxy-spiro[cyclopropane-1,9'-[9H]fluoren]-2-yl)methyl]propanamide] is below 10 nM. `CCCC(=O)NCC1CC12c1cc(OC)ccc1-c1ccc(OC)cc12` (centres unmarked) [Example 7, N-[(2',7'-Dimethoxyspiro[cyclopropane-1,9'-[9H]fluoren]-2-yl)methyl]butanamide]: the concentration for half-maximal inhibition (IC50) in test [1] is below 10 nM. The same measure, in the same setting: the figure for `CCC(=O)NCC1CC12c1cc(OC)ccc1-c1ccc(OC)cc12` (single isomer, unassigned; (+)) [Example 5, (+)-N-[(2',7'-Dimethoxyspiro[cyclopropane-1,9'-[9H]fluoren]-2-yl)methyl]propanamide] is below 10 nM.

Take `CCC(=O)NCC1CC12c1cc(OC)ccc1-c1ccc(OC)cc12` (centres unmarked) [Example 3, N-[(2',7'-Dimethoxyspiro[cyclopropane-1,9'-[9H]fluoren]-2-yl)methyl]propanamide]: in test [1], the IC50 was below 10 nM. On the same count and under the same terms, the figure for `CCC(=O)NCC1CC12c1cc(F)ccc1-c1ccc(OC)cc12` (stereo not drawn) [Example 13, trans-N-[(2'-Fluoro-7'-methoxy-spiro[cyclopropane-1,9'-[9H]fluoren]-2-yl)methyl]propanamide] is below 10 nM; for `COc1ccc2c(c1)C1(CC1CNC(=O)C(C)(C)C)c1cc(OC)ccc1-2` (centres unmarked) [Example 10, N-[(2',7'-Dimethoxyspiro[cyclopropane-1,9'-[9H]fluoren]-2-yl)methyl]-2,2-dimethylpropanamide] it is 100 to 250 nM; for `COc1ccc2c(c1)C1(CC1CNC(C)=O)c1cc(OC)ccc1-2` (centres unmarked) [Example 6, N-[(2',7'-Dimethoxyspiro[cyclopropane-1,9'-[9H]fluoren]-2-yl)methyl]acetamide] it is below 10 nM. The same measure, in the same setting: the figure for `CCC(=O)NCC1CC12c1cc(OC)ccc1-c1ccc(OC)cc12` (single isomer, unassigned; (-)) [Example 4, (-)-N-[(2'7'-Dimethoxyspiro[cyclopropane-1,9'-[9H]fluoren]-2-yl)methyl]propanamide] is below 10 nM.

For `COc1ccc2[nH]cc(CCNC(C)=O)c2c1` [melatonin, N-acetyl-5-methoxytryptamine], the “synchronization of circadian rhythms” value in test [2] was “found to synchronize circadian rhythms in rats”.
